Measured values: the NIST ThermoML archive (doi:10.1021/je500422t)
± gives the expanded uncertainty stated by the source.

What was measured:
[1] = refractive index (Na D-line) (dimensionless); conditions: 298.2 K; 101.33 kPa; Liquid; Standard Abbe refractometry
[2] = Liquid; for mass density: 298.2 K, 101.33 kPa, Vibrating tube method; for Normal boiling temperature: Distillation

refractive index [1] | mass density [2] | Normal boiling temperature [2] | SMILES
1.3685 ± 0.0004 | 1061.9 ± 1 kg/m3 | 90.08 ± 1.1 °C | COC(=O)OC [dimethyl carbonate]
1.37144 ± 0.00039 | 1220.04 ± 1.1 kg/m3 | 101.2 ± 1.1 °C | O=CO [formic acid]
